Assays:
Assay type in all cases: in vivo
Settings in all cases: evaluated after 13 days
[1] = system: Echinochloa crus-galli (ECHCG); experiment: Pre-emergence Test (Table B1), ECHCG
[2] = system: Amaranthus palmeri (AMAPA); experiment: Pre-emergence Test (Table B1), AMAPA
Zea mays (ZEAMX) [3] = experiment: Pre-emergence Test (Table B1), ZEAMX
[4] = system: Ipomoea hederacea (IPOHE); experiment: Pre-emergence Test (Table B1), IPOHE
[5] = system: Amaranthus retoflexus (AMARE); experiment: Pre-emergence Test (Table B1), AMARE
Zea mays (ZEAMX) [6] = experiment: Post-emergence Test (Table B2), ZEAMX; parameters: key: 5-point damage scale: 5=81-100%, 4=61-80%, 3=41-60%, 2=21-40%, 1=0-20%
Procedure: Seeds of a variety of test species are sown in standard soil in pots (Ipomoea hederacea (IPOHE), Zea mays (ZEAMX), Echinochloa crus-galli (ECHCG), Amaranthus palmeri (AMAPA), (Amaranthus retoflexus (AMARE), and (Setaria faberi (SETFA)). After 8 days cultivation under controlled conditions in a glasshouse (at 24° C./16° C., day/night; 14 hours light; 65% humidity), the plants are sprayed with an aqueous spray solution derived from the formulation of the technical active ingredient in acetone/water (50:50) solution containing 0.5% Tween 20 (polyoxyethelyene sorbitan monolaurate, CAS RN 9005-64-5). Rate of application is shown in g/ha in the tables below. The test plants are then grown in a glasshouse under controlled conditions in a glasshouse (at 24° C./16° C., day/night; 14 hours light; 65% humidity) and watered twice daily. After 13 days the test is evaluated for the percentage damage caused to the plant. The biological activities are shown in the following table on a five-point scale (5=81-100%; 4=61-80%; 3=41-60%; 2=21-40%; 1=0-20%; -=not tested).

CCn1c(Cc2cc(C(F)(F)F)ccn2)cc(=O)c(C(=O)O)c1-c1ccc(Cl)c(Cl)c1 [Compound 18, 2-(3,4-dichlorophenyl)-1-ethyl-4-oxo-6-[[4-(trifluoromethyl)-2-pyridyl]methyl]pyridine-3-carboxylic acid]
0: Pre-emergence Test, percentage damage caused to the plant (five-point scale), ECHCG ([1]; Rate 1000 g/Ha)

CCn1c(Cc2ccc(SC)cc2)cc(=O)c(C(=O)O)c1-c1ccc(Cl)c(Cl)c1 [Compound 28, 2-(3,4-dichlorophenyl)-1-ethyl-6-[(4-methylsulfanylphenyl)methyl]-4-oxo-pyridine-3-carboxylic acid]
0: Pre-emergence Test, percentage damage caused to the plant (five-point scale), AMAPA ([2]; Rate 1000 g/Ha) | Pre-emergence Test, percentage damage caused to the plant (five-point scale), ZEAMX (Zea mays (ZEAMX) [3]; Rate 1000 g/Ha) | Pre-emergence Test, percentage damage caused to the plant (five-point scale), IPOHE ([4]; Rate 1000 g/Ha) | Pre-emergence Test, percentage damage caused to the plant (five-point scale), AMARE ([5]; Rate 1000 g/Ha) | percentage damage caused to the plant, ZEAMX (Zea mays (ZEAMX) [6]; rate 1000 g/Ha)

CCn1c(Cc2cccc(F)c2)cc(=O)c(C(=O)O)c1-c1ccc(Cl)c(Cl)c1 [Compound 37, 2-(3,4-dichlorophenyl)-1-ethyl 6-[(3-fluorophenyl)methyl]-4-oxo-pyridine-3-carboxylic acid]
0: Pre-emergence Test, percentage damage caused to the plant (five-point scale), AMAPA ([2]; Rate 1000 g/Ha) | Pre-emergence Test, percentage damage caused to the plant (five-point scale), ZEAMX (Zea mays (ZEAMX) [3]; Rate 1000 g/Ha) | Pre-emergence Test, percentage damage caused to the plant (five-point scale), IPOHE ([4]; Rate 1000 g/Ha) | Pre-emergence Test, percentage damage caused to the plant (five-point scale), AMARE ([5]; Rate 1000 g/Ha) | percentage damage caused to the plant, ZEAMX (Zea mays (ZEAMX) [6]; rate 1000 g/Ha)

CCn1c(Cc2ccnc(Cl)c2)cc(=O)c(C(=O)O)c1-c1ccc(Cl)c(Cl)c1 [Compound 41, 6-[(2-chloro-4-pyridyl)methyl]-2-(3,4-dichlorophenyl)-1-ethyl-4-oxo-pyridine-3-carboxylic acid]
0: Pre-emergence Test, percentage damage caused to the plant (five-point scale), AMAPA ([2]; Rate 250 g/Ha) | Pre-emergence Test, percentage damage caused to the plant (five-point scale), ZEAMX (Zea mays (ZEAMX) [3]; Rate 250 g/Ha) | Pre-emergence Test, percentage damage caused to the plant (five-point scale), AMARE ([5]; Rate 250 g/Ha) | percentage damage caused to the plant, ZEAMX (Zea mays (ZEAMX) [6]; rate 250 g/Ha)

CCn1c(Cc2cncc(F)c2)cc(=O)c(C(=O)O)c1-c1ccc(Cl)c(Cl)c1 [Compound 42, 2-(3,4-dichlorophenyl)-1-ethyl-6-[(5-fluoro-3-pyridyl)methyl]-4-oxo-pyridine-3-carboxylic acid]
0: Pre-emergence Test, percentage damage caused to the plant (five-point scale), AMAPA ([2]; Rate 250 g/Ha) | Pre-emergence Test, percentage damage caused to the plant (five-point scale), ECHCG ([1]; Rate 250 g/Ha) | Pre-emergence Test, percentage damage caused to the plant (five-point scale), ZEAMX (Zea mays (ZEAMX) [3]; Rate 250 g/Ha) | percentage damage caused to the plant, ZEAMX (Zea mays (ZEAMX) [6]; rate 250 g/Ha)

CCn1c(Cc2nccnc2C(=O)O)cc(=O)c(C(=O)O)c1-c1ccc(Cl)c(Cl)c1 [Compound 49, 3-[[5-carboxy-6-(3,4-dichlorophenyl)-1-ethyl-4-oxo-2-pyridyl]methyl]pyrazine-2-carboxylic acid]
0: Pre-emergence Test, percentage damage caused to the plant (five-point scale), ZEAMX (Zea mays (ZEAMX) [3]; Rate 250 g/Ha) | Pre-emergence Test, percentage damage caused to the plant (five-point scale), IPOHE ([4]; Rate 250 g/Ha) | Pre-emergence Test, percentage damage caused to the plant (five-point scale), AMARE ([5]; Rate 250 g/Ha)

CCn1c(Cc2ccsc2)cc(=O)c(C(=O)O)c1-c1ccc(Cl)c(Cl)c1 [Compound 51, 2-(3,4-dichlorophenyl)-1-ethyl-4-oxo-6-(3-thienylmethyl) pyridine-3-carboxylic acid]
0: Pre-emergence Test, percentage damage caused to the plant (five-point scale), AMAPA ([2]; Rate 1000 g/Ha) | Pre-emergence Test, percentage damage caused to the plant (five-point scale), ZEAMX (Zea mays (ZEAMX) [3]; Rate 1000 g/Ha) | Pre-emergence Test, percentage damage caused to the plant (five-point scale), IPOHE ([4]; Rate 1000 g/Ha) | Pre-emergence Test, percentage damage caused to the plant (five-point scale), AMARE ([5]; Rate 1000 g/Ha)

CCn1c(Cc2ccc(OC(F)(F)F)cc2C)cc(=O)c(C(=O)O)c1-c1ccc(Cl)c(Cl)c1 [Compound 63, 2-(3,4-dichlorophenyl)-1-ethyl-6-[[2-methyl-4-(trifluoromethoxy)phenyl]methyl]-4-oxo-pyridine-3-carboxylic acid]
0: Pre-emergence Test, percentage damage caused to the plant (five-point scale), AMAPA ([2]; Rate 1000 g/Ha) | Pre-emergence Test, percentage damage caused to the plant (five-point scale), ZEAMX (Zea mays (ZEAMX) [3]; Rate 1000 g/Ha) | Pre-emergence Test, percentage damage caused to the plant (five-point scale), IPOHE ([4]; Rate 1000 g/Ha) | Pre-emergence Test, percentage damage caused to the plant (five-point scale), AMARE ([5]; Rate 1000 g/Ha)

CCn1c(Cc2ccc(OC)c(F)c2)cc(=O)c(C(=O)O)c1-c1ccc(Cl)c(Cl)c1 [Compound 83, 2-(3,4-dichlorophenyl)-1-ethyl-6-[(3-fluoro-4-methoxy-phenyl)methyl]-4-oxo-pyridine-3-carboxylic acid]
0: Pre-emergence Test, percentage damage caused to the plant (five-point scale), AMAPA ([2]; Rate 1000 g/Ha) | Pre-emergence Test, percentage damage caused to the plant (five-point scale), ZEAMX (Zea mays (ZEAMX) [3]; Rate 1000 g/Ha) | Pre-emergence Test, percentage damage caused to the plant (five-point scale), IPOHE ([4]; Rate 1000 g/Ha) | Pre-emergence Test, percentage damage caused to the plant (five-point scale), AMARE ([5]; Rate 1000 g/Ha)

CCn1c(Cc2cc(OC)ncn2)cc(=O)c(C(=O)O)c1-c1ccc(Cl)c(Cl)c1 [Compound 100, 2-(3,4-dichlorophenyl)-1-ethyl-6-[(6-methoxypyrimidin-4-yl)methyl]-4-oxo-pyridine-3-carboxylic acid]
0: Pre-emergence Test, percentage damage caused to the plant (five-point scale), ECHCG ([1]; Rate 250 g/Ha) | Pre-emergence Test, percentage damage caused to the plant (five-point scale), ZEAMX (Zea mays (ZEAMX) [3]; Rate 250 g/Ha) | Pre-emergence Test, percentage damage caused to the plant (five-point scale), AMARE ([5]; Rate 250 g/Ha)

CCOC(=O)c1cccc(Cc2cc(=O)c(C(=O)O)c(-c3ccc(Cl)c(Cl)c3)n2CC)n1 [Compound 102, 2-(3,4-dichlorophenyl)-6-[(6-ethoxycarbonylpyridin-1-ium-2-yl)methyl]-1-ehtyl-4-oxo-pyridine-3-carboxylic acid; 2,2,2-trifluoroacetate]
0: Pre-emergence Test, percentage damage caused to the plant (five-point scale), AMAPA ([2]; Rate 1000 g/Ha) | Pre-emergence Test, percentage damage caused to the plant (five-point scale), ZEAMX (Zea mays (ZEAMX) [3]; Rate 1000 g/Ha) | Pre-emergence Test, percentage damage caused to the plant (five-point scale), IPOHE ([4]; Rate 1000 g/Ha) | Pre-emergence Test, percentage damage caused to the plant (five-point scale), AMARE ([5]; Rate 1000 g/Ha) | percentage damage caused to the plant, ZEAMX (Zea mays (ZEAMX) [6]; rate 1000 g/Ha)

CCn1c(Cc2cc(COC)cc(Cl)n2)cc(=O)c(C(=O)O)c1-c1ccc(Cl)c(Cl)c1 [Compound 103, 6-[[6-chloro-4-(methoxymethyl)-2-pyridyl]methyl]-2-(3,4-dichlorophenyl)-1-ethyl-4-oxo-pyridine-3-carboxylic acid]
0: Pre-emergence Test, percentage damage caused to the plant (five-point scale), AMAPA ([2]; Rate 1000 g/Ha) | Pre-emergence Test, percentage damage caused to the plant (five-point scale), ZEAMX (Zea mays (ZEAMX) [3]; Rate 1000 g/Ha) | Pre-emergence Test, percentage damage caused to the plant (five-point scale), IPOHE ([4]; Rate 1000 g/Ha) | Pre-emergence Test, percentage damage caused to the plant (five-point scale), AMARE ([5]; Rate 1000 g/Ha)

CCn1c(Cc2cc(C#N)ccn2)cc(=O)c(C(=O)O)c1-c1ccc(Cl)c(Cl)c1 [Compound 111, 6-[(4-cyano-2-pyridyl)methyl]-2-(3,4-dichlorophenyl)-1-ethyl-4-oxo-pyridine-3-carboxylic acid]
0: Pre-emergence Test, percentage damage caused to the plant (five-point scale), ECHCG ([1]; Rate 250 g/Ha)

CCn1c(Cc2cc(C)ncn2)cc(=O)c(C(=O)O)c1-c1ccc(Cl)c(Cl)c1 [Compound 128, 2-(3,4-dichlorophenyl)-1-ethyl-6-[(6-methylpyrimidin-4-yl)methyl]-4-oxo-pyridine-3-carboxylic acid]
0: Pre-emergence Test, percentage damage caused to the plant (five-point scale), ECHCG ([1]; Rate 250 g/Ha) | Pre-emergence Test, percentage damage caused to the plant (five-point scale), ZEAMX (Zea mays (ZEAMX) [3]; Rate 250 g/Ha) | percentage damage caused to the plant, ZEAMX (Zea mays (ZEAMX) [6]; rate 250 g/Ha)

CCn1c(Cc2cnc(Cl)cn2)cc(=O)c(C(=O)O)c1-c1ccc(Cl)c(Cl)c1 [Compound 143, 6-[(5-chloropyrazin-2-yl)methyl]-2-(3,4-dichlorophenyl)-1-ethyl-4-oxo-pyridine-3-carboxylic acid]
0: Pre-emergence Test, percentage damage caused to the plant (five-point scale), AMAPA ([2]; Rate 250 g/Ha) | Pre-emergence Test, percentage damage caused to the plant (five-point scale), ECHCG ([1]; Rate 250 g/Ha) | Pre-emergence Test, percentage damage caused to the plant (five-point scale), ZEAMX (Zea mays (ZEAMX) [3]; Rate 250 g/Ha) | percentage damage caused to the plant, ZEAMX (Zea mays (ZEAMX) [6]; rate 250 g/Ha)

CCn1c(Cc2csnc2C)cc(=O)c(C(=O)O)c1-c1ccc(Cl)c(Cl)c1 [Compound 150, 2-(3,4-dichlorophenyl)-1-ethyl-6-[(3-methylisothiazol-4-yl)methyl]-4-oxo-pyridine-3-carboxylic acid]
0: Pre-emergence Test, percentage damage caused to the plant (five-point scale), ZEAMX (Zea mays (ZEAMX) [3]; Rate 250 g/Ha) | Pre-emergence Test, percentage damage caused to the plant (five-point scale), IPOHE ([4]; Rate 250 g/Ha) | percentage damage caused to the plant, ZEAMX (Zea mays (ZEAMX) [6]; rate 250 g/Ha)
